For eleven molecules, EC50 results are on record in patent publication US20240247080A1, “GLP1/GIP/NPY2 RECEPTOR TRIPLE AGONISTS” (Boehringer Ingelheim International GmbH, priority 2022, published 2024).

Read-outs that look alike come from different tables or passages of the source. Starred links: 1 amine or outer side, 2 acyl side, 3 side chain; linkers in the order of their positions; H or OH if unused. Non-standard residues stand in square brackets, D forms with d. Groups on a side chain read outwards from the residue. *: point of attachment. C20 diacid = O=C(O)CCCCCCCCCCCCCCCCCCC(=O)*; γGlu = O=C(O)[C@H](CCC(=O)[*:2])N[*:1]; εLys = N[C@@H](CCCCN[*:1])C(=O)[*:2]; AEEA = NCCOCCOCC(=O)O; Aib = CC(C)(N)C(=O)O

Common to all, as to type: cell-based
Common to all, as to conditions: CreLuc reporter gene assay
(A reporter such as luciferase makes a cellular process visible.)

One test deals with T1, hGIPR (Homo sapiens, UniProt P48546).
T1 construct: expressed in transfected cells; host or cells: CHO cells carrying a CRE-luciferase reporter gene
T1 sequence (P48546 22-466): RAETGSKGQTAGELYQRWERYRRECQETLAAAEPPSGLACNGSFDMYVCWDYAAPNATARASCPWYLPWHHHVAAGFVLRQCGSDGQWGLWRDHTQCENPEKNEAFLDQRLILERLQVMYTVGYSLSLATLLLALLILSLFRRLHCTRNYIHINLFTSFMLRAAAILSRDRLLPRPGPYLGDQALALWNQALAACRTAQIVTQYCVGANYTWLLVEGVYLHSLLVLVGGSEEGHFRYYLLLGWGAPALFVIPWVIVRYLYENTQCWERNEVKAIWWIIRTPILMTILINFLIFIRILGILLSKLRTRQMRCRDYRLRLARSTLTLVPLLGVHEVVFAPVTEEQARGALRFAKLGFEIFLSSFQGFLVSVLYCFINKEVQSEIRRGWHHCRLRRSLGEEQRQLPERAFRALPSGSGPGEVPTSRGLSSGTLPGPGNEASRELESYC
In words: hGIPR CreLuc reporter gene assay in 0.5% and 100% plasma. The essentials: (§1)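 HEK cells (GLP-1R, NPY2R) or CHO cells (GIPR) carrying a CRE-luciferase reporter, incubated 4 h at 37 °C with peptides in HBSS/20 mM HEPES pH 7.4 plus 0.5% human plasma, or in 100% plasma. Luminescence read; EC50 from 8-point variable-slope sigmoid fits.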

For a further test, the target named is T2, hNPY2R (Homo sapiens, UniProt P49146).
T2 construct: expressed in transfected cells; host or cells: HEK-293 cells carrying a CRE-luciferase reporter gene
T2 sequence (P49146 1-381): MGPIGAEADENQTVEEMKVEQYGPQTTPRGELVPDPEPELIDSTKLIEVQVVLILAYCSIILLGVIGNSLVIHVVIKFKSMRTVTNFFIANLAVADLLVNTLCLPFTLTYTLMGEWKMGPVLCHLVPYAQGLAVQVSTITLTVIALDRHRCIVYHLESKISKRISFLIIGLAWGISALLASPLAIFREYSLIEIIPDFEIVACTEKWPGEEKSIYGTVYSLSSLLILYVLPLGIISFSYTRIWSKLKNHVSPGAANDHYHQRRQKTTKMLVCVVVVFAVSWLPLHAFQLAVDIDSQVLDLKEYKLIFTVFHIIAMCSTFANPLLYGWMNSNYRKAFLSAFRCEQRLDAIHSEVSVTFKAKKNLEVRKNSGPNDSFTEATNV
In words: hNPY2R CreLuc reporter gene assay in 0.5% and 100% plasma. Summed up: as §1

In another test the target is T3, hGLP1R (Homo sapiens, UniProt P43220).
T3 construct: expressed in transfected cells; host or cells: HEK-293 cells carrying a CRE-luciferase reporter gene
In words: hGLP1R CreLuc reporter gene assay in 0.5% and 100% plasma. The essentials: as §1

Where [1] appears, read: 0.5% human plasma, read-out: hGIPR 0.5% hP.
Setting [2] is: 0.5% human plasma, read-out: hNPY2R 0.5% hP.
The mark [3] stands for this setting: 0.5% human plasma, read-out: hGLP1R 0.5% hP.
[4] abbreviates: 100% human plasma, read-out: hGLP1R 100% hP.
The mark [5] stands for this setting: 100% human plasma, read-out: hGIPR 100% hP.
The mark [6] stands for this setting: 100% human plasma, read-out: hNPY2R 100% hP.

T3 sequence (P43220 24-463): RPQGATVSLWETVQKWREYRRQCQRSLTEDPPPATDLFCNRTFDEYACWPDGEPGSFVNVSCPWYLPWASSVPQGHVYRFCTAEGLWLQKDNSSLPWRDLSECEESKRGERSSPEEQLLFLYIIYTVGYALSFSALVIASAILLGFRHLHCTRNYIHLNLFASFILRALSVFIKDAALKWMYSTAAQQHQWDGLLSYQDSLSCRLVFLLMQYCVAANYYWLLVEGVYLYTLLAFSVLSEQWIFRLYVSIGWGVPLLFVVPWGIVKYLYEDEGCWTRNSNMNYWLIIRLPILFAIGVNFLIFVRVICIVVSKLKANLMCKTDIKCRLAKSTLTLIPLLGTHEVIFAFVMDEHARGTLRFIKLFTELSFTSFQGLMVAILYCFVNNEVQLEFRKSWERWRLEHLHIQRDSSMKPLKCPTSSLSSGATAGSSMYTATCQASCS

For the molecule `CC[C@H](C)[C@H](NC(=O)[C@H](CC(C)C)NC(=O)[C@H](Cc1c[nH]c2ccccc12)NC(=O)[C@H](CCC(N)=O)NC(=O)[C@@H](NC(=O)[C@H](Cc1ccccc1)NC(=O)[C@H](C)NC(=O)C(C)(C)NC(=O)[C@H](CCC(N)=O)NC(=O)[C@H](C)NC(=O)[C@H](CCC(N)=O)NC(=O)[C@H](CCCCN)NC(=O)[C@H](CCC(=O)O)NC(=O)[C@H](CC(C)C)NC(=O)C(C)(C)NC(=O)[C@@H](NC(=O)[C@H](CO)NC(=O)[C@H](Cc1ccc(O)cc1)NC(=O)[C@H](CC(=O)O)NC(=O)[C@H](CO)NC(=O)[C@@H](NC(=O)[C@H](Cc1ccccc1)NC(=O)[C@@H](NC(=O)CNC(=O)[C@H](CCC(=O)O)NC(=O)C(C)(C)NC(=O)[C@@H](N)Cc1ccc(O)cc1)[C@@H](C)O)[C@@H](C)O)[C@@H](C)CC)C(C)C)C(=O)N[C@@H](CCCCNC(=O)[C@H](CCC(=O)O)NC(=O)[C@H](CCC(=O)O)NC(=O)[C@H](CCC(=O)O)NC(=O)[C@H](CCC(=O)O)NC(=O)[C@H](CCC(=O)O)NC(=O)CCCCCCCCCCCCCCCCC(=O)O)C(=O)NCC(=O)NCC(=O)N1CCC[C@H]1C(=O)N[C@@H](CO)C(=O)N[C@@H](CCC(=O)O)C(=O)NCC(=O)N[C@@H](C)C(=O)N[C@@H](CO)C(=O)N[C@@H](CC(C)C)C(=O)N[C@@H](CCCNC(=N)N)C(=O)N[C@@H](Cc1c[nH]cn1)C(=O)N[C@@H](Cc1ccc(O)cc1)C(=O)N[C@@H](Cc1ccc(O)cc1)C(=O)N[C@@H](CC(N)=O)C(=O)N[C@@H](Cc1c[nH]c2ccccc12)C(=O)N[C@@H](CC(C)C)C(=O)N[C@H](C(=O)N[C@@H](CCCNC(=N)N)C(=O)N[C@@H](CCC(N)=O)C(=O)N[C@@H](CCCNC(=N)N)C(=O)N[C@@H](Cc1ccc(O)cc1)C(N)=O)[C@@H](C)O` [Compound 257, Y-Aib-E-G-T-F-T-S-D-Y-S-I-Aib-L-E-K-Q-A-Q-Aib-A-F-V-Q-W-L-I-K(1,3)-GGPSEGASLRHYYNWLTRQRY-NH2.C18DA-E-E-E-E-E(1,2)], the EC50 was determined as 140 pM on hGIPR (setting [1]), 16900 pM at hNPY2R (setting [2]), 80 pM on hGLP1R (setting [3]) and 2480 pM at hGLP1R (setting [4]).
Take “H-Y[Aib]EGTFTSDYSI[Aib]LDKQAQ[Aib]AFVEWLIK([εLys-γGlu-γGlu-γGlu-γGlu-γGlu-γGlu-C20 diacid])GGPSSGASLRHYYNWLTRQRY-NH2 [Compound 128, Y-Aib-E-G-T-F-T-S-D-Y-S-I-Aib-L-D-K-Q-A-Q-Aib-A-F-V-E-W-L-I-K(1,3)-GGPSSGASLRHYYNWLTRQRY-NH2.C20DA-gGlu-gGlu-gGlu-gGlu-gGlu-gGlu-eLys(1,2)]”: the EC50 at hGIPR (setting [1]) was found to be 110 pM; at hNPY2R (setting [2]), 24800 pM; at hGLP1R (setting [3]), 400 pM.
On to “H-Y[Aib]EGTFTSDYSI[Aib]LEAAKQ[Aib]AFVEWLIK([εLys-γGlu-γGlu-γGlu-γGlu-γGlu-γGlu-C20 diacid])GGPSSGASLRHYYNWLTRQRY-NH2 [Compound 25, Y-Aib-E-G-T-F-T-S-D-Y-S-I-Aib-L-E-A-A-K-Q-Aib-A-F-V-E-W-L-I-K(1,3)-GGPSSGASLRHYYNWLTRQRY-NH2.C20DA-gGlu-gGlu-gGlu-gGlu-gGlu-gGlu-eLys(1,2)]”, for which the EC50 at hGIPR (setting [1]) was determined as 980 pM; on hNPY2R (setting [2]) it was 13000 pM; on hGLP1R (setting [4]) it was 14200 pM.
As for “H-Y[Aib]EGTFTSDYSI[Aib]LEAQAQ[Aib]AFVEWLIK([εLys-γGlu-γGlu-γGlu-γGlu-γGlu-γGlu-C20 diacid])GGPSSGASLRHYYNWLTRQRY-NH2 [Compound 102, Y-Aib-E-G-T-F-T-S-D-Y-S-I-Aib-L-E-A-Q-A-Q-Aib-A-F-V-E-W-L-I-K(1,3)-GGPSSGASLRHYYNWLTRQRY-NH2.C20DA-gGlu-gGlu-gGlu-gGlu-gGlu-gGlu-eLys(1,2)]”, the EC50 at hGIPR (setting [1]) was 980 pM; on hNPY2R (setting [2]), 24800 pM; on hGLP1R (setting [3]) it was 330 pM.
Take “H-Y[Aib]EGTFTSDYSI[Aib]LEEEAQ[Aib]AFVEWLIK([εLys-γGlu-γGlu-γGlu-γGlu-γGlu-γGlu-C20 diacid])GGPSSGASLRHYYNWLTRQRY-NH2 [Compound 66, Y-Aib-E-G-T-F-T-S-D-Y-S-I-Aib-L-E-E-E-A-Q-Aib-A-F-V-E-W-L-I-K(1,3)-GGPSSGASLRHYYNWLTRQRY-NH2.C20DA-gGlu-gGlu-gGlu-gGlu-gGlu-gGlu-eLys(1,2)]”: the EC50 on hGIPR (setting [1]) is 640 pM; on hNPY2R (setting [2]), 18700 pM; at hGLP1R (setting [3]), 240 pM; on hGLP1R (setting [4]), 11600 pM.
As for “H-Y[Aib]EGTFTSDYSI[Aib]LEEEAQ[Aib]AFVQWLIK([εLys-εLys-γGlu-γGlu-γGlu-γGlu-γGlu-C20 diacid])GGPSSGASLRHYYNWLTRQRY-NH2 [Compound 7, Y-Aib-E-G-T-F-T-S-D-Y-S-I-Aib-L-E-E-E-A-Q-Aib-A-F-V-Q-W-L-I-K(1,3)-GGPSSGASLRHYYNWLTRQRY-NH2.C20DA-gGlu-gGlu-gGlu-gGlu-gGlu-eLys-eLys(1,2)]”, the EC50 amounted to 230 pM at hGIPR (setting [1]), 630 pM on hGIPR (setting [5]), 16900 pM at hNPY2R (setting [2]) and 130 pM at hGLP1R (setting [3]).
On to “H-Y[Aib]EGTFTSDYSI[Aib]LEEQAQ[Aib]AFVEWLIK([εLys-AEEA-AEEA-γGlu-γGlu-γGlu-γGlu-C20 diacid])GGPSSGASLRHYYNWLTRQRY-NH2 [Compound 100, Y-Aib-E-G-T-F-T-S-D-Y-S-I-Aib-L-E-E-Q-A-Q-Aib-A-F-V-E-W-L-I-K(1,3)-GGPSSGASLRHYYNWLTRQRY-NH2.C20DA-gGlu-gGlu-glu-gGlu-OEG-OEG-eLys(1,2)]”, for which the EC50 at hGIPR (setting [1]) came out at 100 pM; at hGIPR (setting [5]), 870 pM; at hNPY2R (setting [2]), 11200 pM; at hGLP1R (setting [3]), 120 pM; on hGLP1R (setting [4]) it was 2210 pM.
As for “H-Y[Aib]EGTFTSDYSI[Aib]LEEQAQ[Aib]AFVEWLIK([εLys-AEEA-γGlu-γGlu-γGlu-γGlu-γGlu-C20 diacid])GGPSSGASLRHYYNWLTRQRY-NH2 [Compound 110, Y-Aib-E-G-T-F-T-S-D-Y-S-I-Aib-L-E-E-Q-A-Q-Aib-A-F-V-E-W-L-I-K(1,3)-GGPSSGASLRHYYNWLTRQRY-NH2.C20DA-gGlu-gGlu-gGlu-gGlu-gGlu-OEG-eLys(1,2)]”, the EC50 on hGIPR (setting [1]) amounted to 150 pM; on hGIPR (setting [5]) it was 1140 pM; at hNPY2R (setting [2]), 17500 pM; on hGLP1R (setting [3]), 150 pM.
“H-Y[Aib]EGTFTSDYSI[Aib]LEEQAQ[Aib]AFVEWLIK([εLys-γGlu-γGlu-γGlu-γGlu-C20 diacid])GGPSSGASLRHYYNWLTRQRY-NH2 [Compound 97, Y-Aib-E-G-T-F-T-S-D-Y-S-I-Aib-L-E-E-Q-A-Q-Aib-A-F-V-E-W-L-I-K(1,3)-GGPSSGASLRHYYNWLTRQRY-NH2.C20DA-gGlu-gGlu-gGlu-gGlu-eLys(1,2)]”: the EC50 stood at 140 pM at hGIPR (setting [1]); 950 pM at hGIPR (setting [5]); 14900 pM at hNPY2R (setting [2]); 70400 pM at hNPY2R (setting [6]); 150 pM on hGLP1R (setting [3]).
For “H-Y[Aib]EGTFTSDYSI[Aib]LEEQAQ[Aib]AFVEWLIK([εLys-γGlu-γGlu-γGlu-γGlu-γGlu-γGlu-C20 diacid])GGPSSGASLRHYYNWLTRQRY-NH2 [Compound 116, Y-Aib-E-G-T-F-T-S-D-Y-S-I-Aib-L-E-E-Q-A-Q-Aib-A-F-V-E-W-L-I-K(1,3)-GGPSSGASLRHYYNWLTRQRY-NH2.C20DA-gGlu-gGlu-gGlu-gGlu-gGlu-gGlu-eLys(1,2)]”, the EC50 worked out at 430 pM on hGIPR (setting [1]); 3010 pM on hGIPR (setting [5]); 13500 pM at hNPY2R (setting [2]); 85700 pM at hNPY2R (setting [6]); 140 pM on hGLP1R (setting [3]); 2480 pM at hGLP1R (setting [4]).
For the molecule “H-Y[Aib]EGTFTSDYSI[Aib]LEEQAQ[Aib]AFVEWLIK([εLys-γGlu-γGlu-γGlu-γGlu-γGlu-γGlu-C20 diacid])GGPSSGQSLRHYYNWLTRQRY-NH2 [Compound 31, Y-Aib-E-G-T-F-T-S-D-Y-S-I-Aib-L-E-E-Q-A-Q-Aib-A-F-V-E-W-L-I-K(1,3)-GGPSSGQSLRHYYNWLTRQRY-NH2.C20DA-gGlu-gGlu-gGlu-gGlu-gGlu-gGlu-eLys(1,2)]”, the EC50 on hGIPR (setting [1]) came out at 150 pM; on hNPY2R (setting [2]), 13400 pM; on hGLP1R (setting [3]) it was 60 pM.
